Data: patent US10226044B2, “Agricultural and horticultural composition and method for cultivating plant” (AJINOMOTO CO., INC., priority 2014, dated 2019)

How the values were obtained:
[1] = system: tomato (Momotaro Fight); experiment: Sprinkling of various compounds on tomato (Momotaro): first appearance, coloring and number of fruit; assay type: in vivo; settings: per four root clumps; for number of fruit turning color to orange or red: 107th day after sowing, water: 0; for number of harvested fruits: after cultivation for 3 months after sowing, water: 8
Description: Three seeds of tomato (Momotaro Fight) were shown in compost contained in a slit pot, and cultivated in the same manner as described in Example 1, provided that the cultivation was performed in a greenhouse (daytime temperature was 25° C. (6:00 to 20:00), and night temperature was 15° C. (20:00 to 6:00)). The compost and application of fertilizer were the same or performed in the same manner as those described in Example 1. After 3 weeks, one root clump was left, and the others were thinned out. When a flower cluster of the first tier appeared, a support was put up, and after a flower cluster of the second tier appeared, pinching was performed (pinching of terminal bud). After the plants of four root clumps uniformly grew, and flower buds began to appear, water (Con.), 10 mM L-isoleucine aqueous solution (Ile), 10 mM monosodium glutamate aqueous solution (GluNa), 5 mM urea aqueous solution (Urea), or 10 mM phenylalanine aqueous solution (Phe) was sprinkled on the whole plants every two weeks. The sprinkled volume was adjusted in accordance with the growth of the plants, and it was 15 to 30 mL per one root clump. The concentration of urea was 5 mM so that nitrogen amount provided by it was the same as that provided by each of the amino acids. Then, the first appearance of fruit, ripening of fruit, and number of fruit produced were investigated for each root clump.

[2] = system: VR callus derived from European grape; experiment: Anthocyanin content of grape calluses treated with amino acids; assay type: cell-based, Vitis vinifera L.
Description: A cell line (VR, management number RPC00003) derived from European grape (Vitis vinifera L.) and stored in the Institute of Physical and Chemical Research, BioResource Center was subcultured on the MS agar medium. The subcultured VR callus was transferred to the MS agar medium containing a 5 mM solution of a different amino acid, and cultured. For the positive control, abscisic acid (ABA), for which coloring-promoting effect is known, was used at 100 μM (Jeong et al., Plant Science, 167:247-252, 2004). On the 5th day after the transfer, the callus was lyophilized and ground, and anthocyanin was extracted from it by using a 1% HCl/MeOH solution. Absorbance of the extract was measured at 530 nm, and the content of anthocyanin was measured by using cyanidine 3-glucoside as a standard substance.
(2) In the same manner as described above, anthocyanin content of grape calluses treated with isoleucine and proline, respectively, were measured.

[3] = system: cherry tomato (Suncherry Pure); assay type: in vivo; settings: 10 mM sprinkled once a week
Description: Three seeds of cherry tomato (Suncherry Pure, Tokita Seed) were shown in compost contained in a slit pot, and cultivated in the same manner as described in Example 1, provided that the cultivation was performed in a greenhouse as in Example 2. The compost and application of fertilizer were the same or performed in the same manner as those described in Example 1. One month after the sowing, each seedling was permanently planted in a 9.0-cm long pot (top diameter 9 cm, height 20 cm, bottom diameter 6.4 cm), and cultivated until harvest. As for application of fertilizer, a 200-fold diluted solution of Vegetable Life A (Otsuka Chemical) was additionally applied as a fertilizer by irrigation in a volume of 100 mL per one root clump (pot) every two days from one month after the sowing to the harvest. After the plants of four root clumps uniformly grew, and flower buds began to appear, water (Con.), 10 mM L-isoleucine aqueous solution (Ile), or 10 mM proline aqueous solution (Pro) was sprinkled on the whole plants once a week. The sprinkled volume was adjusted in accordance with the growth of the plants, and it was 15 to 30 mL per one root clump. Then, ripening of fruit, number of fruit, amino acid content of fruit juice, sugar content and acidity of fruit juice, and antioxidant capacity of fruit juice were investigated for each root clump.

[4] = system: cherry tomato (Suncherry Pure); experiment: Amino acid analysis of tomato fruit obtained with sprinkling of Ile or Pro; assay type: in vivo; settings: fruit juice; plants sprinkled with 10 mM solution once a week; average of 8 fruit
Description: (§1) After the plants of four root clumps uniformly grew, and flower buds began to appear, water (Con.), 10 mM L-isoleucine aqueous solution (Ile), or 10 mM proline aqueous solution (Pro) was sprinkled on the whole plants once a week. The sprinkled volume was adjusted in accordance with the growth of the plants, and it was 15 to 30 mL per one root clump.
Mature fruit were taken from each of the cherry tomato plants sprinkled with water, Ile, or Pro, and the amino acid content was analyzed for each. Two pieces of fruit were taken from the flower cluster of the second tier of one root clump, that is, a total of 8 pieces of fruit were taken for each test group. Fruit juice was pressed out of each piece of fruit, and the fruit juice was diluted 10 times with 0.02 N HCl, and subjected to filter filtration. The amino acids contained in the obtained filtrate were measured. Measurement of the amino acids was performed with High Speed Amino Acid Analyzer L-8800 (Hitachi) according to the manual of this instrument. The amounts of the amino acids (μmol/mL) in each fruit juice filtrate were calculated, and the averages for eight pieces of fruit were used as the amino acid amounts of the corresponding test group.

[5] = system: cherry tomato (Suncherry Pure); experiment: Sugar content and acidity analysis of tomato fruit juice; assay type: in vivo; settings: 10 mM sprinkled once a week
Description: as §1
Mature tomato fruit were taken from cherry tomato plants of each experimental group in the same manner as described in iii) above, and fruit juice was pressed out from each fruit. Glucose content, fructose content, and acidity of each fruit juice extract were analyzed. Analysis of glucose and fructose was performed for a 20-fold diluted solution of fruit juice by using a food analysis reagent kit, F-Kit (Saccharose (Sucrose)/D-Glucose/D-Fructose Kit (Roche)) and DU800 Spectrophotometer (Beckman Coulter) according to the manuals of the kit and instrument. Acidity analysis was performed by using a pocket acidity meter (PAL-AC1, ATAGO).

NC(N)=O [Urea, urea]
number of fruit turning color to orange or red [1]: 1
number of harvested fruits [1]: 10

N[C@@H](Cc1ccc(O)cc1)C(=O)O [Try, reference compound]
Relative anthocyanin content ([2]; 5 mM amino acid in MS agar medium, 5th day after transfer, positive control 100 μM abscisic acid (ABA) taken as 100%): 0%

O=C(O)[C@@H]1CCCN1 [Pro, proline, reference compound]
final crop yield: number of fruit produced, larger as compared to water (Con.) [3]: 9%
number of tomatoes that had changed color [3]: larger in the order of the tomato plants sprinkled with Ile, Pro, and water (Con.)
Ala in fruit juice [4]: 3.79 µmol/mL
Arg in fruit juice [4]: 0.13 µmol/mL
Asn in fruit juice [4]: 0.63 µmol/mL
Asp in fruit juice [4]: 1.75 µmol/mL
Cys in fruit juice [4]: 0.08 µmol/mL
Gln in fruit juice [4]: 1.57 µmol/mL
Glu in fruit juice [4]: 7.76 µmol/mL
Gly in fruit juice [4]: 0.24 µmol/mL
His in fruit juice [4]: 0.17 µmol/mL
Ile in fruit juice [4]: 0.15 µmol/mL
Leu in fruit juice [4]: 0.29 µmol/mL
Lys in fruit juice [4]: 0.27 µmol/mL
Met in fruit juice [4]: 0.14 µmol/mL
Phe in fruit juice [4]: 0.38 µmol/mL
Pro in fruit juice [4]: 0.39 µmol/mL
Ser in fruit juice [4]: 0.61 µmol/mL
Thr in fruit juice [4]: 0.27 µmol/mL
Total amino acids in fruit juice [4]: 21.13 µmol/mL
Trp in fruit juice [4]: 0.072 µmol/mL
Tyr in fruit juice [4]: 0.185 µmol/mL
Val in fruit juice [4]: 0.18 µmol/mL
γ-ABA in fruit juice [4]: 4.46 µmol/mL
acidity of the fruit, comparison of groups [5]: slightly increased
glucose content and fructose content of the fruit, comparison of groups [5]: lowest
Acidity ([5]; fruit juice of mature fruit): 0.47%
Fructose ([5]; fruit juice of mature fruit): 12.2 g/L
Glucose ([5]; fruit juice of mature fruit): 12.3 g/L
change in color of the grape callus (anthocyanin content) ([2]; Ile of 1 mM or higher, Pro compared with Ile): weaker

N[C@@H](Cc1ccccc1)C(=O)O [Phe, phenylalanine]
number of fruit turning color to orange or red [1]: 0
number of harvested fruits [1]: 8

N[C@@H](CCC(=O)O)C(=O)[O-].[Na+] [GluNa, monosodium glutamate]
number of fruit turning color to orange or red [1]: 1
number of harvested fruits [1]: 14
